From patent US11066369B2, “N-(pyridin-2-yl)pyridine-sulfonamide derivatives and their use in the treatment of disease” (Novartis AG, priority 2016, dated 2021)
pEC50: −log10 of the molar value. Counter-ions that a name gives are not always drawn. Like-named read-outs stand apart in the source and are kept apart here.

Target: T1, horseradish peroxidase (HRP) tagged delF508-CFTR (Homo sapiens, UniProt P13569, DEL508-508)
T1 construct: expressed in transfected cells
Test: Measurement of delF508-CFTR-HRP surface expression in CFBE41o- cells;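 on DelF508-CFTR-HRP Amax %: percent efficacy relative to reference corrector lumacaftor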
Assay type: cell-based
Settings: CFBE41o- cells; for pEC50: read-out: DelF508-CFTR-HRP EC50; for Emax: read-out: DelF508-CFTR-HRP Amax %
Method in brief: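 Surface-trafficked delF508-CFTR detected via extracellular HRP tag, read as luminescence from a membrane-impermeant substrate in CFBE41o- cells. Cells pre-induced 48h with 500 ng/mL doxycycline, then exposed 24h at 37° C to a 10-point, 3-fold dilution series from 10 μM (DMSO ≤0.5%). Triplicate dose-responses fitted logistically for EC50 after per-plate normalization; fold change versus reference compound.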

[1] = mean of at least two replicates
[2] = delF508-CFTR-HRP surface expression

T1 sequence (P13569 with tags, fused parts or gaps DEL508-508): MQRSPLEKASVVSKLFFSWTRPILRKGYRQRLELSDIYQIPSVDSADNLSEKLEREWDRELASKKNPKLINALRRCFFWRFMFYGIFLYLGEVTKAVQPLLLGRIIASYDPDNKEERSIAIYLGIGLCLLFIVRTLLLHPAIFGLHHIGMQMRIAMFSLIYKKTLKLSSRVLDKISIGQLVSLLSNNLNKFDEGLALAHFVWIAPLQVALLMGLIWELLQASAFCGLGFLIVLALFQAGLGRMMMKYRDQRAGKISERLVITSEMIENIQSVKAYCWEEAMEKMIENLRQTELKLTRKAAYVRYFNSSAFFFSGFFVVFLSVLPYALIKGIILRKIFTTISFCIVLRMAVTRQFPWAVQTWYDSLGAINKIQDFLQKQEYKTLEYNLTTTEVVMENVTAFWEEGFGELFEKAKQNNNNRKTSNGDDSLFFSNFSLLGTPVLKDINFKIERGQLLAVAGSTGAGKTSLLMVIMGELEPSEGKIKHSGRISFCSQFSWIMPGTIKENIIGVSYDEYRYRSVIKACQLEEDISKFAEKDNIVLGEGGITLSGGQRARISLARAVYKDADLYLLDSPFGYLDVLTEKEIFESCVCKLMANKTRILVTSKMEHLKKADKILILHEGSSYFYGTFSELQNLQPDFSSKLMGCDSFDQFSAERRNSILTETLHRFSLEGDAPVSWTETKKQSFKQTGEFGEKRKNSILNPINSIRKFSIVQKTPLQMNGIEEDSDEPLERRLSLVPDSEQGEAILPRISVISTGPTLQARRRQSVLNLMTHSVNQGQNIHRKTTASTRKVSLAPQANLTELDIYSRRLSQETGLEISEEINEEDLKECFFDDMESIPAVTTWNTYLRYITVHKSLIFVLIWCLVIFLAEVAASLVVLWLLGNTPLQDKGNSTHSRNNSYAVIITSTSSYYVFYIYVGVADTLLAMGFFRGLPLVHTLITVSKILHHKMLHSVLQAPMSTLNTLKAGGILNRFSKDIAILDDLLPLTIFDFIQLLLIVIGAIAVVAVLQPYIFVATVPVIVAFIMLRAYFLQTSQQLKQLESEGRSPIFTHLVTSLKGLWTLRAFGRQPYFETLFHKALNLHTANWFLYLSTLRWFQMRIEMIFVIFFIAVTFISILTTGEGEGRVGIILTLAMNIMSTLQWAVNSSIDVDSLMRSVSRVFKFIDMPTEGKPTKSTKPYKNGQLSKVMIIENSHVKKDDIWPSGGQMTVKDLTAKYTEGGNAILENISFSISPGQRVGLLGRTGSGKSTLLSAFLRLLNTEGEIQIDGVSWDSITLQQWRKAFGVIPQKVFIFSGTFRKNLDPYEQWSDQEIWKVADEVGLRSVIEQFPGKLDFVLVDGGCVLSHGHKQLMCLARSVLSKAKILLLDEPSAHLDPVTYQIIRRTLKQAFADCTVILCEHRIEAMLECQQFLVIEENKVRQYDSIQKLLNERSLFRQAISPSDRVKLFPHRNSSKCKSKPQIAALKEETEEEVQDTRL

Compound | pEC50 [1] | Emax (surface expression Amax) [%] | Emax [2] [%] | pEC50 [2]
CC(C)COc1ccccc1-c1nc(NS(=O)(=O)c2cccc(N3CCC(C)(C(=O)O)CC3)n2)ccc1Cl [Example 397, 1-(6-(N-(5-chloro-6-(2-isobutoxyphenyl)pyridin-2-yl)sulfamoyl)pyridin-2-yl)-4-methylpiperidine-4-carboxylic Acid] | 5.89 | 303 | – | –
Cc1ccccc1-c1nc(NS(=O)(=O)c2cccc(NC3CCCC(C(=O)O)C3)n2)ccc1C(F)(F)F (mixture of isomers) [Example 460, 3-((6-(N-(6-(o-tolyl)-5-(trifluoromethyl)pyridin-2-yl)sulfamoyl)pyridin-2-yl)amino)cyclohexanecarboxylic acid] | 5.74 | 362 | – | –
Cc1ccc(Cl)cc1-c1nc(NS(=O)(=O)c2cccc(N3CCC(C)(C(=O)O)CC3)n2)ccc1C(F)(F)F [Example 451, 1-(6-(N-(6-(5-chloro-2-methylphenyl)-5-(trifluoromethyl)pyridin-2-yl)sulfamoyl)pyridin-2-yl)-4-methylpiperidine-4-carboxylic Acid] | 5.57 | 847 | – | –
CCC[C@@H]1CCN(c2cccc(S(=O)(=O)Nc3ccc(C(F)(F)F)c(-c4ccccc4C)n3)n2)[C@H]2C[C@H](C(=O)O)[C@@H]12 (racemic) [Example 404, rac-(1SR,5RS,6RS,7SR)-5-propyl-2-(6-(N-(6-(o-tolyl)-5-(trifluoromethyl)pyridin-2-yl)sulfamoyl)pyridin-2-yl)-2-azabicyclo[4.2.0]octane-7-carboxylic Acid] | 6.10 | – | – | –
Cc1cccc(C)c1-c1nc(NS(=O)(=O)c2cccc(N3CCC(O)(C(=O)O)CC3)n2)ccc1Cl [Example 261, 1-(6-{[5-chloro-6-(2,6-dimethylphenyl)pyridin-2-yl]sulfamoyl}pyridin-2-yl)-4-hydroxypiperidine-4-carboxylic Acid] | – | – | 22.8 | 5.38
Nc1cccc(S(=O)(=O)Nc2ccc(Cl)c(-c3ccc(C(F)(F)F)cc3)n2)n1 [Example 94, 6-amino-N-(5-chloro-6-(4-(trifluoromethyl)phenyl)pyridin-2-yl)pyridine-2-sulfonamide] | – | – | 20.3 | 5.50
Cc1cc(C#N)ccc1-c1nc(NS(=O)(=O)c2cccc(N)n2)ccc1Cl [Example 91, 6-amino-N-(5-chloro-6-(4-cyano-2-methylphenyl)pyridin-2-yl)pyridine-2-sulfonamide] | – | – | 41.7 | 5.66
CCCC1(C(=O)O)CCCN(c2cccc(S(=O)(=O)Nc3ccc(C(F)(F)F)c(-c4ccccc4C)n3)n2)C1 (stereo not shown) [Example 458, 3-propyl-1-(6-(N-(6-(o-tolyl)-5-(trifluoromethyl)pyridin-2-yl)sulfamoyl)pyridin-2-yl)piperidine-3-carboxylic Acid] | 5.80 | 639 | – | –
COC(=O)C1(C)CCN(c2cccc(S(=O)(=O)Nc3ccc(C(F)(F)F)c(-c4ccccc4C4CC4)n3)n2)CC1 [Example 236, methyl 1-(6-(N-(6-(2-cyclopropylphenyl)-5-(trifluoromethyl)pyridin-2-yl)sulfamoyl)pyridin-2-yl)-4-methylpiperidine-4-carboxylate] | – | – | 602 | 6.24
Cc1ccccc1-c1nc(NS(=O)(=O)c2cccc(N[C@H]3C[C@](C)(C(=O)O)C3)n2)ccc1C(F)(F)F [Example 365, (1r,3s)-1-methyl-3-[(6-{[6-(2-methylphenyl)-5-(trifluoromethyl)pyridin-2-yl]sulfamoyl}pyridin-2-yl)amino]cyclobutane-1-carboxylic Acid] | – | – | 166 | 5.72
Cc1ccccc1-c1nc(NS(=O)(=O)c2cccc(N[C@H]3C[C@H](C(=O)O)C3)n2)ccc1C(F)(F)F [Example 355, (1r,3r)-3-((6-(N-(6-(o-tolyl)-5-(trifluoromethyl)pyridin-2-yl)sulfamoyl)pyridin-2-yl)amino)cyclobutanecarboxylic Acid] | – | – | 140 | 5.43
CO[C@H]1CNCC[C@H]1Nc1cccc(S(=O)(=O)Nc2ccc(C(F)(F)F)c(-c3ccccc3C)n2)n1 (racemic) [Example 115, 6-(((3S,4R)-3-methoxypiperidin-4-yl)amino)-N-(6-(o-tolyl)-5-(trifluoromethyl)pyridin-2-yl)pyridine-2-sulfonamide Hydrochloride] | – | – | 192 | 5.42
CCc1ccccc1-c1nc(S(=O)(=O)Nc2cccc(N3CCC(C)(C(=O)O)CC3)n2)ccc1C(F)(F)F [Example 380, 1-(6-(6-(2-ethylphenyl)-5-(trifluoromethyl)pyridine-2-sulfonamido)pyridin-2-yl)-4-methylpiperidine-4-carboxylic Acid] | 5.58 | 42.3 | – | –
Cc1cccc(C)c1-c1nc(NS(=O)(=O)c2ccc(N)nc2)ccc1Cl [Example 47, 6-amino-N-(5-chloro-6-(2,6-dimethylphenyl)pyridin-2-yl)pyridine-3-sulfonamide] | – | – | 335 | 5.86
Nc1cccc(S(=O)(=O)Nc2ccc(Cl)c(-c3ccccc3C3CC3)n2)n1 [Example 19, 6-amino-N-(5-chloro-6-(2-cyclopropylphenyl)pyridin-2-yl)pyridine-2-sulfonamide] | – | – | 501 | 5.89
Cc1ccc(C#N)cc1-c1nc(NS(=O)(=O)c2cccc(N)n2)ccc1Cl [Example 84, 6-amino-N-(5-chloro-6-(5-cyano-2-methylphenyl)pyridin-2-yl)pyridine-2-sulfonamide] | – | – | 111 | 5.81
Cc1ccccc1-c1nc(NS(=O)(=O)c2cccnc2N)ccc1Cl [Example 88, 2-amino-N-(5-chloro-6-(o-tolyl)pyridin-2-yl)pyridine-3-sulfonamide] | – | – | 92.9 | 5.42
CCOC(=O)C1(C)CCN(c2cccc(S(=O)(=O)Nc3ccc(Cl)c(-c4cccc(F)c4C)n3)n2)CC1 [Example 252, ethyl 1-(6-(N-(5-chloro-6-(3-fluoro-2-methylphenyl)pyridin-2-yl)sulfamoyl)pyridin-2-yl)-4-methylpiperidine-4-carboxylate] | – | – | 602 | 5.61
CCc1ccccc1-c1nc(NS(=O)(=O)c2cccc(N3CCC[C@@H](C(=O)O)C3)n2)ccc1C(F)(F)F [Example 369, (R)-1-(6-(N-(6-(2-ethylphenyl)-5-(trifluoromethyl)pyridin-2-yl)sulfamoyl)pyridin-2-yl)piperidine-3-carboxylic Acid] | – | – | 962 | 5.76

Other lines, results leading:

pEC50 [1] | Emax (surface expression Amax) [%] | Emax [2] [%] | pEC50 [2] | Compound
6.11 | 729 | – | – | CC1(C(=O)O)CCCN(c2cccc(S(=O)(=O)Nc3ccc(C(F)(F)F)c(-c4ccccc4C4CC4)n3)n2)C1 (stereo not shown) [Example 402, 1-(6-(N-(6-(2-cyclopropylphenyl)-5-(trifluoromethyl)pyridin-2-yl)sulfamoyl)pyridin-2-yl)-3-methylpiperidine-3-carboxylic Acid]
6.12 | – | – | – | CCCc1ccccc1-c1nc(NS(=O)(=O)c2cccc(N3CCC[C@@](C)(C(=O)O)C3)n2)ccc1C(F)(F)F [Example 423, (R)-3-methyl-1-(6-(N-(6-(2-propylphenyl)-5-(trifluoromethyl)pyridin-2-yl)sulfamoyl)pyridin-2-yl)piperidine-3-carboxylic Acid]
5.64 | 714 | – | – | Cc1ccc(F)cc1-c1nc(NS(=O)(=O)c2cccc(N3CCC[C@](C)(C(=O)O)C3)n2)ccc1C(F)(F)F [Example 435, (3S)-1-(6-{[6-(5-fluoro-2-methylphenyl)-5-(trifluoromethyl)pyridin-2-yl]sulfamoyl}pyridin-2-yl)-3-methylpiperidine-3-carboxylic Acid]
5.87 | 465 | – | – | CCCC1(C(=O)O)CCCN(c2cccc(S(=O)(=O)Nc3ccc(Cl)c(-c4ccccc4C)n3)n2)C1 (stereo not shown) [Example 456, 1-(6-(N-(5-chloro-6-(o-tolyl)pyridin-2-yl)sulfamoyl)pyridin-2-yl)-3-propylpiperidine-3-carboxylic Acid]
5.69 | – | – | – | C[C@@]1(C(=O)O)CCCN(c2cccc(S(=O)(=O)Nc3ccc(C(F)(F)F)c(-c4ccccc4Cl)n3)n2)C1 [Example 421, (R)-1-(6-(N-(6-(2-chlorophenyl)-5-(trifluoromethyl)pyridin-2-yl)sulfamoyl)pyridin-2-yl)-3-methylpiperidine-3-carboxylic Acid]
5.72 | – | – | – | Cc1ccc(F)cc1-c1nc(NS(=O)(=O)c2cccc(N3CCC[C@@](C)(C(=O)O)C3)n2)ccc1C(F)(F)F [Example 416, (3R)-1-(6-{[6-(5-fluoro-2-methylphenyl)-5-(trifluoromethyl)pyridin-2-yl]sulfamoyl}pyridin-2-yl)-3-methylpiperidine-3-carboxylic Acid]
5.72 | 221 | – | – | Cc1ccccc1-c1cccc(NS(=O)(=O)c2cccc(N3CCC[C@@](C)(C(=O)O)C3)n2)n1 [Example 412, (R)-3-methyl-1-(6-(N-(6-(o-tolyl)pyridin-2-yl)sulfamoyl)pyridin-2-yl)piperidine-3-carboxylic Acid]
5.61 | 235 | – | – | C[C@@]1(C(=O)O)CCCN(c2cccc(S(=O)(=O)Nc3cccc(-c4ccccc4C4CC4)n3)n2)C1 [Example 405, (R)-1-(6-(N-(6-(2-cyclopropylphenyl)pyridin-2-yl)sulfamoyl)pyridin-2-yl)-3-methylpiperidine-3-carboxylic Acid]
6.24 | 906 | – | – | C[C@@]1(C(=O)O)CCCN(c2cccc(S(=O)(=O)Nc3ccc(C(F)(F)F)c(-c4ccccc4C4CC4)n3)n2)C1 [Example 413, (R)-1-(6-(N-(6-(2-cyclopropylphenyl)-5-(trifluoromethyl)pyridin-2-yl)sulfamoyl)pyridin-2-yl)-3-methylpiperidine-3-carboxylic Acid]
